Measured values published in patent publication US20220378928A1, “A Camptothecin Drug and Its Antibody Conjugate Thereof” (priority 2020, published 2022).
Like-named read-outs stand apart in the source and are kept apart here.

Experiments:
Assay in all cases: Camptothecin drug cellular activity test (MTS cell proliferation)
Format in all cases: cell-based, human
A431 = conditions: read-out: Cell Viability, A431
Method: (§1) The cytotoxic activity of camptothecin drugs was determined by the following experimental process: Camptothecin drugs were added to cell culture media that grows human tumors cells that express A431, Fadu, Bxpc-3 (EGFR-positive cells) and U87-MG, SW620 (negative control cells). Cell survival rates were measured after the cells were cultured for 72 hours. Cell-based in vitro experiments are used to determine cell survival rate, cytotoxicity, and programmed cell death induced by the camptothecin drug of the present application.
(§2) The in vitro efficacy of the camptothecin drugs was determined by cell proliferation test. CellTiter 96® Aqueous One Solution Cell Proliferation Assay is commercially available (Promega Corp., Madison, Wis.). CellTiter 96® AQueous One Solution Cell Proliferation Assay(a) is a colorimetric method to detect the number of living cells in cell proliferation and cytotoxicity experiments. This reagent contains a novel tetrazolium compound [3-(4, 5-dimethylthiazol-2-yl)-5-(3-carboxymethoxyphenyl)-2-(4-sulfophenyl)-2H-tetrazolium, inner salt; MTS] and an electronic coupling agent (phenazine ethosulfate; PES). PES has enhanced chemical stability, which allows it to be mixed with MTS to form a stable solution. This convenient “single solution” mode is an improvement on the basis of the first generation CellTiter 96*AQueous Assay. The electronic coupling agent PMS and MTS solution used in the CellTiter 96*AQueous Assay are provided separately. MTS (Owen's reagent) is reduced by cell organisms into a colored formazan product (Illustration 1), which can be directly dissolved in the culture medium.
(§3) The conversion in all likelihood is completed under the action of NADPH or NADH produced by dehydrogenases in metabolically active cells. When testing, just add a small amount of CellTiter 96® AQueous One Solution Reagent directly to the culture plate well, incubate for 1-4 hours, and then read the absorbance value at 490 nm with a microplate reader.
(§4) The amount of formazan detected at 490 nm is directly proportional to the number of viable cells in culture. Since the formazan product of MTS is soluble in tissue culture medium, CellTiter 96® AQueous One Solution Assay has fewer steps than MTT or INT methods.
(§5) In the present application, A431, Fadu, Bxpc-3 (EGFR positive expressing cells) and U87-MG, SW620 (negative control cells) are used as the research system for in vitro drug efficacy detection. In a 96-well plate, use an appropriate cell density for plating, and after 24 hours, add camptothecin. After 24 hours, dilute the camptothecin drug with the test medium (1 uM start, 5-fold dilution, 9 concentrations, add test medium in the tenth column as a blank control), and add the diluted camptothecin drug to the corresponding cell wells. The cell wells were then shaken with a microplate shaker (model: MX100-4A) for 3 minutes at a shaking speed of 550 rpm/min. After shaking, they were placed in a carbon dioxide incubator and incubated for 3 days. After 3 days, add 20 uL MTS (Promega, G3581) to each well for 2 hours, and the microplate reader (Molecular Device, model: SpectraMAX190) reads at […]. By detecting the activity of dehydrogenase in mitochondria, the inhibitory effect of camptothecin drugs on cell proliferation was evaluated.

Fadu = conditions: read-out: Cell Viability, Fadu
Method: as §1, §2, §3, §4, §5

BXPC-3 = conditions: read-out: Cell Viability, BXPC-3
Method: as §1, §2, §3, §4, §5

U87-MG = conditions: read-out: Cell Viability, U87-MG
Method: as §1, §2, §3, §4, §5

SW620 = conditions: read-out: Cell Viability, SW620
Method: as §1, §2, §3, §4, §5

[1] = Homo sapiens, A-431, 72 h, A431, EGFR-positive cells, 3 days incubation, MTS
[2] = Homo sapiens, 72 h, Fadu, EGFR-positive cells, 3 days incubation, MTS
[3] = Homo sapiens, 72 h, BXPC-3, EGFR-positive cells, 3 days incubation, MTS
[4] = Homo sapiens, U-87 MG, 72 h, U87-MG, negative control cells, 3 days incubation, MTS
[5] = Homo sapiens, SW-620, 72 h, SW620, negative control cells, 3 days incubation, MTS

Compound	IC50 (A431; [1]) [nM]	IC50 (Fadu; [2]) [nM]	IC50 (BXPC-3; [3]) [nM]	IC50 (U87-MG; [4]) [nM]	IC50 (SW620; [5]) [nM]	IC50 (A431; Homo sapiens, A-431, 72 h) [nM]	IC50 (Fadu; Homo sapiens, FaDu, 72 h) [nM]	IC50 (BXPC-3; Homo sapiens, BXPC-3, 72 h) [nM]	IC50 (U87-MG; Homo sapiens, U-87 MG, 72 h) [nM]	IC50 (SW620; Homo sapiens, SW-620, 72 h) [nM]	other results
CC[C@@]1(O)C(=O)OCc2c1cc1n(c2=O)Cc2c-1nc1cc(F)c(C)c3c1c2[C@@H](NC(=O)[C@H](C)O)CC3 [Compound 2]	40.9	11.1	38.8	7.4	10.4						
CC[C@@]1(O)C(=O)OCc2c1cc1n(c2=O)Cc2c-1nc1cc(F)c(C)c3c1c2[C@H](NC(=O)[C@H](O)C(F)(F)F)CC3 [Compound 12]	15.5	0.002	1.6	0.06	0.06						
CC[C@@]1(O)C(=O)OCc2c1cc1n(c2=O)Cc2c-1nc1cc(F)c(C)c3c1c2[C@H](NC(=O)[C@@H](O)C(F)(F)F)CC3 [Compound 13]	6.37	0.06	40	0.32 to 1.6	1.06						
CC[C@@]1(O)C(=O)OCc2c1cc1n(c2=O)Cc2c-1nc1cc(F)c(C)c3c1c2[C@@H](NC(=O)C1(O)CCCC1)CC3 [Compound 25]						11.7	41	15.8	10.4	1.5	
CC[C@@]1(O)C(=O)OCc2c1cc1n(c2=O)Cc2c-1nc1cc(F)c(C)c3c1c2[C@@H](NC(=O)C(O)c1ccccc1)CC3 (stereo partly drawn) [Compound 28]						5.12	14.2	81	18.3	11.9	
CC[C@@]1(O)C(=O)OCc2c1cc1n(c2=O)Cc2c-1nc1cc(F)c(C)c3c1c2[C@@H](NC(=O)[C@H](O)c1cc(F)cc(F)c1)CC3 [Compound 29]						19.6	41.3	90.1	23.6	2.15	
CC[C@@]1(O)C(=O)OCc2c1cc1n(c2=O)Cc2c-1nc1cc(F)c(C)c3c1c2[C@@H](NC(=O)[C@H](O)c1ccc2c(c1)OCO2)CC3 [Compound 30]						19.9	19.2	34.2	29.9	2.25	
CC[C@H](O)C(=O)N[C@H]1CCc2c(C)c(F)cc3nc4c(c1c23)Cn1c-4cc2c(c1=O)COC(=O)[C@]2(O)CC [Compound 31]						14.8	17.5	55.4	10.8	17.5	
CCc1c2c(nc3ccc(O)cc13)-c1cc3c(c(=O)n1C2)COC(=O)[C@]3(O)CC [SN38, reference compound]											IC50 (A431; A431, EGFR-positive cells, 3 days incubation, MTS): 13.6 nM; IC50 (Fadu; Fadu, EGFR-positive cells, 3 days incubation, MTS): 42.1 nM; IC50 (BXPC-3; BXPC-3, EGFR-positive cells, 3 days incubation, MTS): 120 nM; IC50 (U87-MG; U87-MG, negative control cells, 3 days incubation, MTS): 15.7 nM; IC50 (SW620; SW620, negative control cells, 3 days incubation, MTS): 3.28 nM
